The assay addresses ABCA4 (Bos taurus, UniProt F1MWM0). Type of assay: biochemical.

Chain of ABCA4 (F1MWM0 whole entry): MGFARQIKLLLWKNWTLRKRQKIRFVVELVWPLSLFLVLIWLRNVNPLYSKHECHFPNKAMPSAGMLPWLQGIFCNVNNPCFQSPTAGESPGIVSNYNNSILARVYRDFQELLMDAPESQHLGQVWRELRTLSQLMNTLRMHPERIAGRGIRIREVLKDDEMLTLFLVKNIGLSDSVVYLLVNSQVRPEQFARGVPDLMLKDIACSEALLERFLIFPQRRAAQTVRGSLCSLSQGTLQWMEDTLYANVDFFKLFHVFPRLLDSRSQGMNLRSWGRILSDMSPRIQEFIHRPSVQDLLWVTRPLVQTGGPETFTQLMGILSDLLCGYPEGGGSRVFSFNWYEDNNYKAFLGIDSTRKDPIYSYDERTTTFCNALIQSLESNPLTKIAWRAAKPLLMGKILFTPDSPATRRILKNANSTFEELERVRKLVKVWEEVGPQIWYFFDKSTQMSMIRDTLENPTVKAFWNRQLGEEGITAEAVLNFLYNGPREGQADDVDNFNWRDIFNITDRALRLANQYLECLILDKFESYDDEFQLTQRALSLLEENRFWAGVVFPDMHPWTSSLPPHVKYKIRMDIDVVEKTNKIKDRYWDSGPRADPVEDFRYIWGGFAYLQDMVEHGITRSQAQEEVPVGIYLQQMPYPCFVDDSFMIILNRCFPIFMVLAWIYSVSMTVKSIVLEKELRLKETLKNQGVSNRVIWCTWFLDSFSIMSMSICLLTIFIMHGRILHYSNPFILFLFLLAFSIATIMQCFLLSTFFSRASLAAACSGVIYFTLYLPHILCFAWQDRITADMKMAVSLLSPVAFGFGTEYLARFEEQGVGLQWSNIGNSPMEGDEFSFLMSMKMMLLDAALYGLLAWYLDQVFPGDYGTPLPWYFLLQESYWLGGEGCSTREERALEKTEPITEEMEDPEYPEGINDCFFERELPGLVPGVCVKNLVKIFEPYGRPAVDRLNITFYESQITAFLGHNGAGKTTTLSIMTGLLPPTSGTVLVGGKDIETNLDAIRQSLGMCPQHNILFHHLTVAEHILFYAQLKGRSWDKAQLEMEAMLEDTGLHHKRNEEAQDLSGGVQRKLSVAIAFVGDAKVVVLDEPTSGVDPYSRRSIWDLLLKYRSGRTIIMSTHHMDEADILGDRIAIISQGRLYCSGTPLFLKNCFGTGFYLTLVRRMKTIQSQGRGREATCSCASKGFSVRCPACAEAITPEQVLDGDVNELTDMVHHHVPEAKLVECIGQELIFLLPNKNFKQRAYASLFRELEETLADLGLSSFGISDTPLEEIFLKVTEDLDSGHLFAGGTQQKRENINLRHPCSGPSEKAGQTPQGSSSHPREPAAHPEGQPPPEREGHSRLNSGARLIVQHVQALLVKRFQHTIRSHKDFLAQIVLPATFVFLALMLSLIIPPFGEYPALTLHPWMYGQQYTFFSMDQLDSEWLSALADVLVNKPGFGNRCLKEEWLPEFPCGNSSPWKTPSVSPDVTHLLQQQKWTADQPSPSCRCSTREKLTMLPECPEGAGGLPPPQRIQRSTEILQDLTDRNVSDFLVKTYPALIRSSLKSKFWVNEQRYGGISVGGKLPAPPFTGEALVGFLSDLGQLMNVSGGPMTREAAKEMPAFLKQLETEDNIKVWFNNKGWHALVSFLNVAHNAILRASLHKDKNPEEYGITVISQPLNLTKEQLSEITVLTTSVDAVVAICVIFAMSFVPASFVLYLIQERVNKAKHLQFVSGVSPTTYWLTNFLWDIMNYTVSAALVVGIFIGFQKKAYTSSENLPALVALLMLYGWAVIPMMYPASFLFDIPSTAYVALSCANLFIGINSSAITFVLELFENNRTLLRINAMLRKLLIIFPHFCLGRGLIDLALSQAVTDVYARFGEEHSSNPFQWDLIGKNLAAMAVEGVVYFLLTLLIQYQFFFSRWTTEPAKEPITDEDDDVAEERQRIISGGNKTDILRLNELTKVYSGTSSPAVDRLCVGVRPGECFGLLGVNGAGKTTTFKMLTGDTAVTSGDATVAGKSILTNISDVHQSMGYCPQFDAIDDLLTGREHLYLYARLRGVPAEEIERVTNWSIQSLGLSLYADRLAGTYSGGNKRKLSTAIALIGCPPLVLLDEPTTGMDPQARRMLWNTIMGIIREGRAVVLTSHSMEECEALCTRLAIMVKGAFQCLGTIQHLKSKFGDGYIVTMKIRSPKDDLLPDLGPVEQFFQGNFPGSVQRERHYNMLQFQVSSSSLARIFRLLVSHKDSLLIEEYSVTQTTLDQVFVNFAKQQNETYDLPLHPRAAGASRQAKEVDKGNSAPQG

Substance N-retinyl-PE came in with an IC50 of 9 µM.

For orientation: IC50 means the concentration that gives 50% inhibition.

The record behind these values is paper PMC3871175 (Nature Communications, 2012).
